US20220260574A1, “METHODS OF DETERMINING THERAPIES BASED ON SINGLE CELL CHARACTERIZATION OF CIRCULATING TUMOR CELLS (CTCS) IN METASTATIC DISEASE” (Epic Sciences, Inc., priority 2017, published 2022)
Where two headings read alike, the source gives them in different places.

Key:
mCRPC patients [1] = assay: Single CTC sequencing of a 2nd line post taxane patient treated with enzalutamide; assay type: in vivo, human; conditions: 2nd line post taxane patient with lack of clonal diversity
Text: Phlebotomy samples were obtained at a Decision Point in management: therapy was chosen by the treating physician. Standard of care collection from 221 mCRPC patients at decision points. Baseline blood draw prior to A, E or T. Followed by PSA, time on drug, radiographic progression free (rPFS) & overall survival (OS). 9225 CTCs identified and characterized phenotypically. 741 CTCs from 31 patients were studied by whole genome CNV for clonality and gene amplifications/deletions. Patients were ranked based on how heterogeneous or diverse the cells were at each decision point. […] After a CTC is phenotypically measured, the coverslip is removed and the individual CTC is aspirated and put into an individual tube. The CTCs are amplified and prepared for sequencing (FIG. 15). Following sequencing informatics were performed to assess clonality and amplification/deletions (FIG. 15). […] Each patient sample was analyzed separately. Single CTC genomic CNV plots were curated individually versus other CTCs in patient sample. Clonality was characterized based on large genomic variations and focal amplifications or deletion of known driver alterations in at least 2 CTCs, for example, two cells from same patient with or without a loss of chromosome 5q or two clones from a patient with and without AR amplification (FIG. 16).

mCRPC patients [2] = tested on: mCRPC patients
mCRPC patients [3] = assay: Carboplatin therapy in mCRPC patients with high vs low pLST baseline CTCs (PSA response); assay type: in vivo, human
[4] = patients without vs with the presence of cell type K
[5] = one 8th line mCRPC patient with 4.3% baseline CTCs as high pLST
[6] = one 10th line mCRPC patient with 96% baseline CTCs as high pLST

Row | Compound | response to therapy (mCRPC patients [1]) | Time on therapy (Tx) (mCRPC patients [2]; all patients, Abi vs Enza) | overall survival (OS) (mCRPC patients [2]; all patients, Abi vs Enza) | radiographic Progression Free Survival (rPFS) (mCRPC patients [2]; all patients, Enza vs Abi, p=0.025) | HR (hazards of death, overall survival), feature Therapy (mCRPC patients [2]; multivariate cox model, =0 if Abi, =1 if Enza, p 0.4167) | HR (hazards of death, overall survival), feature Cell Type K: Therapy Interaction (mCRPC patients [2]; multivariate cox model, =0 if not K+ and Enza, =1 if K+ and Enza, p 0.0306) | hazards of death, therapy favoured in multivariate cox proportional hazards model (mCRPC patients [2]; patients without the presence of cell type K) | OS (mCRPC patients [2]; patients without the presence of cell type K, Enza vs Abi) | rPFS (mCRPC patients [2]; patients without the presence of cell type K, Enza vs Abi, p=0.006) | OS (mCRPC patients [2]; [4]) | Time on Tx (mCRPC patients [2]; [4]) | rPFS (mCRPC patients [2]; [4]) | 12 week PSA change (mCRPC patients [3]; [5]) | response to carboplatin therapy (mCRPC patients [3]; [5]) | 12 week PSA change (mCRPC patients [3]; [6]) [%] | response to carboplatin therapy (mCRPC patients [3]; [6])
1 | CNC(=O)c1ccc(N2C(=S)N(c3ccc(C#N)c(C(F)(F)F)c3)C(=O)C2(C)C)cc1F [enzalutamide] | responded | similar | similar | significantly better | 0.6543 | 5.2792 | more favorable | no difference | significantly better | significant improvement | significant improvement | significant improvement |  |  |  | 
2 | N.N.O=C([O-])C1(C(=O)[O-])CCC1.[Pt+2] [carboplatin] |  |  |  |  |  |  |  |  |  |  |  |  | +2.1% | did not respond | −50.1 | responded
